Assay results reported in patent publication US20100210532A1, “USE OF NEUROPEPTIDE SF, ALONE OR IN COMBINATION WITH GLP-2, AS A THERAPEUTIC AGENT” (priority 2007, published 2010).
Where no end group is shown, it is not given here.

What was measured:
HIV-1IIIB = assay: HIV-1 antiviral assay in CEM-SS cells (MTS readout); settings: positive controls of the HIV-1 assay
HCMV strain AD169 = assay: HCMV plaque formation assay in MRC-5 cells; settings: for inhibition of HCMV plaque formation as compared to the virus control experiment: 10 micrograms per ml, MRC-5 cells, 7-10 days, combination 0.95 mole peptide 1 and 1.05 mole peptide 2
[1] = test system: hepatitis B virus (HBV) ayw strain; assay: HBV experimental assay system, HepG2-2.2.15 cells, secreted HBV DNA by TaqMan PCR; format: cell-based; settings: 10 micrograms per ml, six days, combination 0.95 mole peptide 1 and 1.05 mole peptide 2
Human A549 cells = assay: Apoptosis prevention assay (C2 ceramide, Annexin-5); format: cell-based; settings: 10 micrograms per ml, 30 min pretreatment
[2] = test system: Tumor Necrosis Factor-α (TNF-α); assay: Th1/Th2 cytokine profiling assay, TNF-α; format: cell-based, mouse; settings: 10 micrograms per ml, Ovalbumin-restimulated Balb/c spleen cells, 72 hours; for production of TNF-alpha in murine spleen cells, induced by: combination 0.95 mole peptide 1 and 1.05 mole peptide 2
Text: (§1) The Balb/c mice (originated in 1923, it is a popular strain and is used in many different research disciplines. […] On day 50, spleens of the mice were harvested (3 weeks after last boost with Ovalbumin). […] This kit can be used to measure Interleukin-2 (IL-2), Interleukin-4 (IL-4), Interleukin-5 (IL-5), Interferon-γ (IFN-γ), and Tumor Necrosis Factor-α (TNF-α) protein levels in a single sample. The kit performance has been optimized for analysis of physiologically relevant concentrations ([…] levels) of specific cytokine proteins in tissue culture supernatants and serum samples.

Interferon-γ (IFN-γ) = assay: Th1/Th2 cytokine profiling assay, IFN-γ; format: cell-based, mouse; settings: 10 micrograms per ml, Ovalbumin-restimulated Balb/c spleen cells, 72 hours
Text: as §1

Interleukin-2 (IL-2) = assay: Th1/Th2 cytokine profiling assay, IL-2; format: cell-based, mouse; settings: 10 micrograms per ml, Ovalbumin-restimulated Balb/c spleen cells, 72 hours; for production of IL-2 in murine spleen cells, induced by: combination 0.95 mole peptide 1 and 1.05 mole peptide 2
Text: as §1

Interleukin-4 (IL-4) = assay: Th1/Th2 cytokine profiling assay, IL-4; format: cell-based, mouse; settings: 10 micrograms per ml, Ovalbumin-restimulated Balb/c spleen cells, 72 hours; for production of IL-4 in murine spleen cells, induced by: combination 0.95 mole peptide 1 and 1.05 mole peptide 2
Text: as §1

Interleukin-5 (IL-5) = assay: Th1/Th2 cytokine profiling assay, IL-5; format: cell-based, mouse; settings: 10 micrograms per ml, Ovalbumin-restimulated Balb/c spleen cells, 72 hours; for change of the production of IL-5 in murine spleen cells: combination 0.95 mole peptide 1 and 1.05 mole peptide 2
Text: as §1

[3] = test system: Primary Human endothelial cells (HUVEC); assay: Endothelial cell migration assay; format: cell-based; settings: 10 micrograms per ml, 22 hours
HUVEC = assay: Endothelial tube formation assay; format: cell-based, human; settings: 10 micrograms per ml, 20 hours
Protocol: The endothelial tube formation assay is based on the ability of endothelial cells to form three-dimensional capillary-like tubular structures when cultured on a gel of basement membrane extract. The endothelial tube formation assay represents a powerful model for studying inhibition and induction of angiogenesis. Pre-labeled HUVEC with Calcein AM were seeded in a 96-well culture plate coated with extracellular metrix (Chemicon international Cat. ECM625) and treated with test peptides-10 micrograms per ml-in full growth medium. […] control was vehicle only. […] Duplicate wells for each treatment were photographed and quantitatevily analyzed for an average tubule length using image analysis software ImageProPlus. Raw data were expressed as average tubule […]±standard deviation. Statistic p values were computed using the Student's t-test.

| Compound | antiviral activity of positive control compounds (HIV-1IIIB) | antiviral activity of positive control compound (HCMV strain AD169; positive control of the HCMV assay) | inhibition of HBV replication as compared to the virus control infection [1] | reduction of the ceramide-induced apoptosis on human lung cells (Human A549 cells) | TNF-a spleen cells; TH1 response (% of control) [2] | production of TNF-alpha in murine spleen cells, induced by [2] | IFNγ spleen cells; TH1 response (% of control) (Interferon-γ (IFN-γ)) | production of IFN-γ in murine spleen cells, induced by (Interferon-γ (IFN-γ); combination 0.95 mole peptide 1 and 1.05 mole peptide 2) | IL-2 spleen cells (% of control) (Interleukin-2 (IL-2)) | production of IL-2 in murine spleen cells, induced by (Interleukin-2 (IL-2)) | IL-4 spleen cells; TH2 response (% of control) (Interleukin-4 (IL-4)) | production of IL-4 in murine spleen cells, induced by (Interleukin-4 (IL-4)) | IL-5 spleen cells; TH2 response (% of control) (Interleukin-5 (IL-5)) | change of the production of IL-5 in murine spleen cells (Interleukin-5 (IL-5)) | inhibition of the migration of human endothelial cells [3] | inhibition of the tube formation of human endothelial cells (HUVEC) | inhibition of HCMV plaque formation as compared to the virus control experiment (HCMV strain AD169) | production of IFN-γ in murine spleen cells, decreased by (Interferon-γ (IFN-γ)) |
| --- | --- | --- | --- | --- | --- | --- | --- | --- | --- | --- | --- | --- | --- | --- | --- | --- | --- | --- |
| Cc1cn([C@H]2C[C@H](N=[N+]=[N-])[C@@H](CO)O2)c(=O)[nH]c1=O [AZT] | expected levels of antiviral activity | – | – | – | – | – | – | – | – | – | – | – | – | – | – | – | – | – |
| Nc1nc(O)c2ncn(COC(CO)CO)c2n1 [Ganciclovir, reference compound] | – | expected levels of antiviral activity | – | – | – | – | – | – | – | – | – | – | – | – | – | – | – | – |
| CC(C)(C)NC(=O)[C@@H]1CN(Cc2cccnc2)CCN1C[C@@H](O)C[C@@H](Cc1ccccc1)C(=O)N[C@H]1c2ccccc2C[C@H]1O [indinavir] | expected levels of antiviral activity | – | – | – | – | – | – | – | – | – | – | – | – | – | – | – | – | – |
| His-Ala-Asp-Gly-Ser-Phe-Ser-Asp-Glu-Met-Asn-Thr-Ile-Leu-Asp-Asn-Leu-Ala-Ala-Arg-Asp-Phe-Ile-Asn-Trp-Leu-Ile-Gln-Thr-Lys-Ile-Thr-Asp-OH [Peptide 2] | – | – | 59.2% | did not reduce | 143.7 % of control | 43.7% | 132.7 % of control | 32.7% | 183.3 % of control | 83.3% | 104.4 % of control | did not significantly change | 108.4 % of control | did not significantly change | did not inhibit | 12% | 18.8% | – |
| Ser-Gln-Ala-Phe-Leu-Phe-Gln-Pro-Gln-Arg-Phe-NH2 (SQAFLFQPQRF-NH2) [Peptide 1] | – | – | 16.7% | 16.45% | 106.3 % of control | did not significantly change | 68.0 % of control | – | 112.4 % of control | did not significantly change | 242.2 % of control | 142.2% | 91.6 % of control | did not significantly change | 33% | 19% | 31.3% | 32.0% |
